From US11365199B2, “Pyrazole compounds as modulators of FSHR and uses thereof” (Merck Patent GmbH, priority 2013, dated 2022)

Experiments:
FSHR = biological target: T1, FSHR (Homo sapiens, UniProt P23945); assay: EC50 of cyclic AMP production in CHO FSHR cells + EC20 FSH (Assay A); assay type: cell-based; conditions: CHO FSHR cells + EC20 FSH, cAMP HTRF; read-out: Assay A: EC50 of cyclic AMP production
T1 construct: expressed in transfected cells; host or cells: CHO (Cho-FSHR-LUC-1-1-43)
T1 sequence (P23945 18-695): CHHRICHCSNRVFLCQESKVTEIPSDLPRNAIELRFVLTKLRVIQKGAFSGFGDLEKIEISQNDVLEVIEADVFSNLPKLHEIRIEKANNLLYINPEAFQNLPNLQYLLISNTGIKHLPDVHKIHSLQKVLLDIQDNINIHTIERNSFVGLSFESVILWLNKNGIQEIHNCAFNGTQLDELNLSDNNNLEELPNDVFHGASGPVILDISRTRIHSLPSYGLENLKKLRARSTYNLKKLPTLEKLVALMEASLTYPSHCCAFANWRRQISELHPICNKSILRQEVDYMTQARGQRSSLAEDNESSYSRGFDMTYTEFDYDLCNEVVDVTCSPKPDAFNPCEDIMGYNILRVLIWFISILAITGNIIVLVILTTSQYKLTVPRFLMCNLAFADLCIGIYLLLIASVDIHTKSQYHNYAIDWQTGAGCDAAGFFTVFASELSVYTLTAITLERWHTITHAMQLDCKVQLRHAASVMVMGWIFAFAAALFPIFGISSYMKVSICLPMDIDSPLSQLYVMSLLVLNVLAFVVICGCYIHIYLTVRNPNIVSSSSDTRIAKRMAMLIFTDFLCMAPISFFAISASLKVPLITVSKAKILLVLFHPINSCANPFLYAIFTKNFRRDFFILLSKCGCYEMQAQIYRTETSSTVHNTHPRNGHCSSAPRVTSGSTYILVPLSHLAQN
Procedure, shortened: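 Cho-FSHR-LUC cells were exposed to compound dilution series with EC20 FSH ([…]) and 200 μM IBMX for 1 h at 37° C. cAMP was read by HTRF (665/620 nm ratio). Effects are percent of the maximal FSH standard response.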

[1] = biological target: T2, follicle-stimulating hormone (FSH) receptor (Rattus norvegicus, UniProt P20395); assay: Rat granulosa EC50 FSH (Assay B); assay type: cell-based; conditions: rat granulosa cells; read-out: Assay B: Rat granulosa EC50 FSH
T2 construct: endogenous in cells; host or cells: primary rat granulosa cells
T2 sequence (P20395 18-692): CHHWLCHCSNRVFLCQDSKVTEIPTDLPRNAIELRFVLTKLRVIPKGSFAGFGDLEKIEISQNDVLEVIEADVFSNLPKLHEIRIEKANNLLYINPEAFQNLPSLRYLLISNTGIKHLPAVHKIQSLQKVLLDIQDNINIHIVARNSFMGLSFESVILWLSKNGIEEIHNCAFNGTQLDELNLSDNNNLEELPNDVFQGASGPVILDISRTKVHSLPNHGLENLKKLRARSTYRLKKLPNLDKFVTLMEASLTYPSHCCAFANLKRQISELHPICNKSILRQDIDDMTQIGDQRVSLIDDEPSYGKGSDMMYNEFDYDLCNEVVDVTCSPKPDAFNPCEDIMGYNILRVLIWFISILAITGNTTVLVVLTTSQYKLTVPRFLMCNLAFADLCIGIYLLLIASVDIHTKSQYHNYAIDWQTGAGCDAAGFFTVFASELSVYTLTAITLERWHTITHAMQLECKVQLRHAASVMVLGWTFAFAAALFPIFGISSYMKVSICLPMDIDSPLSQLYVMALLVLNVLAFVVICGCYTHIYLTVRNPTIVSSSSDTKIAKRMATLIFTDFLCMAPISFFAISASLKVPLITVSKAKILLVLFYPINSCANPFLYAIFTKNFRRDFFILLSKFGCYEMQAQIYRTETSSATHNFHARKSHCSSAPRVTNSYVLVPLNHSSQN
Procedure: Rat Granulosa EC50 FSH (Assay B)
The assay was performed pursuant to the teaching of Yanofsky et al. (2006) Allosteric activation of the follicle-stimulating hormone (FSH) receptor by selective, nonpeptide agonists (JBC 281(19): 13226-13233, which is incorporated by reference in the disclosure of the invention).

SMILES | EC50 (FSHR) [nM] | EC50 [1] [nM]
[2H]C([2H])([2H])N(C(=O)c1nn(-c2ccsc2)c2c1COc1cc(OC)c(-c3ccn(C)c3)cc1-2)C1CCOC1 (stereo not shown) [Compound 146] | 100 to 1000 | 100 to 1000
COC/C=C/c1cc2c(cc1OC)OCc1c(C(=O)N(C)C(C)(C)C)nn(-c3ccsc3)c1-2 [Compound 147, 7-Methoxy-8-((E)-3-methoxy-propenyl)-1-thiophen-3-yl-1,4-dihydro-chromeno[4,3-c]pyrazole-3-carboxylic acid tert-butyl-methyl-amide] | < 100 | 100 to 1000
COc1cc2c(cc1C1=CCCCO1)-c1c(c(C(=O)N(C)C(C)(C)C)nn1-c1ccsc1)CO2 [Compound 148, 8-(5,6-Dihydro-4H-pyran-2-yl)-7-methoxy-1-thiophen-3-yl-1,4-dihydro-chromeno[4,3-c]pyrazole-3-carboxylic acid tert-butyl-methyl-amide] | < 100 | 100 to 1000
COc1cc2c(cc1C1=CCCC1)-c1c(c(C(=O)N(C)C(C)(C)C)nn1-c1ccsc1)CO2 [Compound 149, 8-Cyclopent-1-enyl-7-methoxy-1-thiophen-3-yl-1,4-dihydro-chromeno[4,3-c]pyrazole-3-carboxylic acid tert-butyl-methyl-amide] | < 100 | 100 to 1000
COc1cc2c(cc1-c1cn(C)nc1C)-c1c(c(C(=O)N(C)C(C)(C)C)nn1-c1ccsc1)CO2 [Compound 150, 8-(1,3-Dimethyl-1H-pyrazol-4-yl)-7-methoxy-1-thiophen-3-yl-1,4-dihydro-chromeno[4,3-c]pyrazole-3-carboxylic acid tert-butyl-methyl-amide] | < 100 | 100 to 1000
COc1cc2c(cc1C1=CCOC1)-c1c(c(C(=O)N(C)C(C)(C)C)nn1-c1ccsc1)CO2 [Compound 151, 8-(2,5-Dihydro-furan-3-yl)-7-methoxy-1-thiophen-3-yl-1,4-dihydro-chromeno[4,3-c]pyrazole-3-carboxylic acid tert-butyl-methyl-amide] | < 100 | 100 to 1000
COc1cc2c(cc1-c1cn(C)nn1)-c1c(c(C(=O)N(C)C(C)(C)C)nn1-c1ccsc1)CO2 [Compound 153, 7-Methoxy-8-(1-methyl-1H-[1,2,3]triazol-4-yl)-1-thiophen-3-yl-1,4-dihydro-chromeno[4,3-c]pyrazole-3-carboxylic acid tert-butyl-methyl-amide] | < 100 | < 100
COc1cc2c(cc1-c1ccn(C)n1)-c1c(c(C(=O)N3CCOCC34COC4)nn1-c1ccsc1)CO2 [Compound 154, (2,8-Dioxa-5-aza-spiro[3.5]non-5-yl)-[7-methoxy-8-(1-methyl-1H-pyrazol-3-yl)-1-thiophen-3-yl-1,4-dihydro-chromeno[4,3-c]pyrazol-3-yl]-methanone] | < 100 | 1000 to 5000
COc1cc2c(cc1-c1ccn(C)c1)-c1c(c(C(=O)N3CCN(C(=O)OC(C)(C)C)CC3(C)C)nn1-c1ccsc1)CO2 [Compound 157, 4-[7-Methoxy-8-(1-methyl-1H-pyrrol-3-yl)-1-thiophen-3-yl-1,4-dihydro-chromeno[4,3-c]pyrazole-3-carbonyl]-3,3-dimethyl-piperazine-1-carboxylic acid tert-butyl ester] | 100 to 1000 | 100 to 1000
COc1cc2c(cc1-c1ccn(C)n1)-c1c(c(C(=O)N3CCN(C)CC3(C)C)nn1-c1ccsc1)CO2 [Compound 159, [7-Methoxy-8-(1-methyl-1H-pyrazol-3-yl)-1-thiophen-3-yl-1,4-dihydro-chromeno[4,3-c]pyrazol-3-yl]-(2,2,4-trimethyl-piperazin-1-yl)-methanone] | < 100 | < 100
COc1cc2c(cc1-c1ccn(C)c1)-c1c(c(C(=O)N3CCN(C)CC3(C)C)nn1-c1ccsc1)CO2 [Compound 160, [7-Methoxy-8-(1-methyl-1H-pyrrol-3-yl)-1-thiophen-3-yl-1,4-dihydro-chromeno[4,3-c]pyrazol-3-yl]-(2,2,4-trimethyl-piperazin-1-yl)-methanone] | < 100 | < 100
COc1cc2c(cc1-c1nc[nH]n1)-c1c(c(C(=O)N3CCOCC3(C)C)nn1-c1ccsc1)CO2 [Compound 161, (3,3-Dimethyl-morpholin-4-yl)-[7-methoxy-1-thiophen-3-yl-8-(5H-[1,2,4]triazol-3-yl)-1,4-dihydro-chromeno[4,3-c]pyrazol-3-yl]-methanone] | < 100 | < 100
[2H]C([2H])([2H])OCC1(N(C(=O)c2nn(-c3ccsc3)c3c2COc2cc(OC)c(CC(C)C)cc2-3)C([2H])([2H])[2H])COC1 [Compound 162] | < 100 | 100 to 1000
[2H]C([2H])([2H])N(C(=O)c1nn(-c2ccsc2)c2c1COc1cc(OC)c(CC(C)C)cc1-2)C1(C)COC1 [Compound 163] | < 100 | 100 to 1000
[2H]C([2H])([2H])OC1(CN(C(=O)c2nn(-c3ccsc3)c3c2COc2cc(OC)c(-c4ccn(C)n4)cc2-3)C([2H])([2H])[2H])COC1 [Compound 167] | 100 to 1000 | 100 to 1000
[2H]C([2H])([2H])OC1(CN(C(=O)c2nn(-c3ccsc3)c3c2COc2cc(OC)c(-c4ccn(C)c4)cc2-3)C([2H])([2H])[2H])COC1 [Compound 168] | < 100 | 100 to 1000

Now from value to compound:

EC50 (FSHR) [nM] | EC50 [1] [nM] | SMILES
< 100 | 100 to 1000 | COc1cc2c(cc1-c1ccn(C)n1)-c1c(c(C(=O)N3CCNCC3(C)C)nn1-c1ccsc1)CO2 [Compound 169, (2,2-Dimethyl-piperazin-1-yl)-[7-methoxy-8-(1-methyl-1H-pyrazol-3-yl)-1-thiophen-3-yl-1,4-dihydro-chromeno[4,3-c]pyrazol-3-yl]-methanone]
< 100 | 1000 to 5000 | COc1cc2c(cc1-c1ccn(C)c1)-c1c(c(C(=O)N3CCNCC3(C)C)nn1-c1ccsc1)CO2 [Compound 170]
100 to 1000 | > 5000 | COc1cc2c(cc1CNC(C)=O)-c1c(c(C(=O)N3CCOCC3(C)C)nn1-c1ccsc1)CO2 [Compound 175, N-[3-(3,3-Dimethyl-morpholine-4-carbonyl)-7-methoxy-1-thiophen-3-yl-1,4-dihydro-chromeno[4,3-c]pyrazol-8-ylmethyl]-acetamide]
< 100 | < 100 | [2H]C([2H])([2H])OCC1(C)CCCN1C(=O)c1nn(-c2ccsc2)c2c1COc1cc(OC)c(-c3ccn(C)n3)cc1-2 (stereo not shown) [Compound 182]
< 100 | < 100 | [2H]C([2H])([2H])OCC1(C)CCCN1C(=O)c1nn(-c2ccsc2)c2c1COc1cc(OC)c(-c3ccn(C)c3)cc1-2 (stereo not shown) [Compound 184]
< 100 | 100 to 1000 | COc1cc2c(cc1-c1ccn(C)c1)-c1c(c(C(=O)NC3(CCO)COC3)nn1-c1ccsc1)CO2 [Compound 186, 7-Methoxy-8-(1-methyl-1H-pyrrol-3-yl)-1-thiophen-3-yl-1,4-dihydro-chromeno[4,3-c]pyrazole-3-carboxylic acid [3-(2-hydroxy-ethyl)-oxetan-3-yl]-amide]
< 100 | < 100 | COc1cc2c(cc1C1=CCOCC1)-c1c(c(C(=O)N3CCOCC3(C)C)nn1-c1ccsc1)CO2 [Compound 189, [8-(3,6-Dihydro-2H-pyran-4-yl)-7-methoxy-1-thiophen-3-yl-1,4-dihydro-chromeno[4,3-c]pyrazol-3-yl]-(3,3-dimethyl-morpholin-4-yl)-methanone]
